Holding throughout (type): biochemical
The target in assay [1] is T1, Itk (Homo sapiens, UniProt Q08881).
T1 sequence (Q08881 1-620): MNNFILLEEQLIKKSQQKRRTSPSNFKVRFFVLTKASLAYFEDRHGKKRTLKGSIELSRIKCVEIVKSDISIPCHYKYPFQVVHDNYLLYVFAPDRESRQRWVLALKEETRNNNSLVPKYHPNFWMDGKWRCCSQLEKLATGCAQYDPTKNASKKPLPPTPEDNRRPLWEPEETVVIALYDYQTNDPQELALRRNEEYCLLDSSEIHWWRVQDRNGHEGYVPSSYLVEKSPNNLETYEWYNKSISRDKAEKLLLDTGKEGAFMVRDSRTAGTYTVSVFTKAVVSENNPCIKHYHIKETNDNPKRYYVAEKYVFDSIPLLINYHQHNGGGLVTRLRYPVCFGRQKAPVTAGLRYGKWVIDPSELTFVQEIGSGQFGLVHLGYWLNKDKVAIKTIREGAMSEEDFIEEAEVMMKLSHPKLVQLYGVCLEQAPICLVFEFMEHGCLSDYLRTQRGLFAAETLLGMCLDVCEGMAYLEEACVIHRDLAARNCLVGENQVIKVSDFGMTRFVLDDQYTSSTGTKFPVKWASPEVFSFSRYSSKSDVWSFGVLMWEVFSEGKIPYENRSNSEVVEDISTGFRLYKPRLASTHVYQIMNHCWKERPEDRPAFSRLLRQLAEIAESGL
The assay can be described thus: ITK inhibition assay, radioactive-phosphate incorporation. The following applies: [γ-33P]ATP, SAM68 peptide, 25° C. As for the experimental part: Assays were carried out in a mixture of 20 mM MOPS (pH 7.0), 10 mM MgCl2, 0.1% BSA and 1 mM DTT. […] Assays were carried out at 25° C. in the presence of 50 nM Itk. An assay stock buffer solution was prepared containing all of the reagents listed above, with the exception of ATP and the test compound of interest.
The reaction was stopped after 10 minutes by the addition of […] 0.2M phosphoric acid+0.01% TWEEN 20. A multiscreen phosphocellulose filter 96-well plate (Millipore, Cat no. MAPHN0B50) was pretreated with 100 μL 0.2M phosphoric acid+0.01% TWEEN 20 prior to the addition of […] of the stopped assay mixture. The plate was washed with 4×200 μL 0.2M phosphoric acid+0.01% TWEEN 20.
Ki(app) data were calculated from non-linear regression analysis of the initial rate data using the Prism software package (GraphPad Prism version 3.0cx for Macintosh, GraphPad Software, San Diego Calif., USA).

Assay [2] addresses T1, Itk. The experiment in a line: ITK inhibition assay (UV), standard coupled enzyme assay. The following applies: 100 μM ATP, 100 nM Itk, 25° C. The protocol:
Assays were carried out in a mixture of 20 mM MOPS (pH 7.0), 10 mM MgCl2, 0.1% BSA, 1 mM DTT, 2.5 mM phosphoenolpyruvate, 300 μM NADH, 30 μg/ml pyruvate kinase and 10 μg/ml lactate dehydrogenase. […]
An assay stock buffer solution was prepared containing all of the reagents listed above, with the exception of ATP and the test compound of interest. […] The plate was preincubated for 10 minutes at 25° C. and the reaction initiated by addition of 5 μl of ATP. Initial reaction rates were determined with a Molecular Devices SpectraMax Plus plate reader over a 10 minute time course. IC50 and Ki data were calculated from non-linear regression analysis using the Prism software package (GraphPad Prism version 3.0cx for Macintosh, GraphPad Software, San Diego Calif., USA).

Assay [3] addresses T2, Rlk (Homo sapiens, UniProt P42681).
T2 sequence (P42681 1-527): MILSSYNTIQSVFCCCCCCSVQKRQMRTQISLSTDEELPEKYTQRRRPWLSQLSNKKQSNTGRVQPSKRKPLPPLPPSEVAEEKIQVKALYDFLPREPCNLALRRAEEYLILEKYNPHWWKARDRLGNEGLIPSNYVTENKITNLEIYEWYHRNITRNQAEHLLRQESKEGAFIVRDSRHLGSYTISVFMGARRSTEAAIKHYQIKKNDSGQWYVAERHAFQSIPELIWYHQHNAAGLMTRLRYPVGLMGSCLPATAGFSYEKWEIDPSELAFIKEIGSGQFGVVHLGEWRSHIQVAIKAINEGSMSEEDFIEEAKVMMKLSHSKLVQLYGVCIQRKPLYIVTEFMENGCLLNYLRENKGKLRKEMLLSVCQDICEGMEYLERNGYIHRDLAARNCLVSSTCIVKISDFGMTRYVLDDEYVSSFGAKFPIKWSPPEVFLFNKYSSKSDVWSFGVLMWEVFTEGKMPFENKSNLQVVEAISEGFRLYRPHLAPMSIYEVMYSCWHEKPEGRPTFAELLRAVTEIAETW
The assay can be described thus: RLK inhibition assay, standard coupled enzyme assay. Particulars: 100 μM ATP, 40 nM Rlk, 30° C. The protocol: Compounds were screened for their ability to inhibit Rlk using a standard coupled enzyme assay (Fox et al., Protein Sci., (1998) 7, 2249). Assays were carried out in a mixture of 20 mM MOPS (pH 7.0), 10 mM MgCl2, 0.1% BSA and 1 mM DTT. Final substrate concentrations in the assay were 100 μM ATP (Sigma Chemicals) and 10 μM peptide (Poly Glu:Tyr 4:1). Assays were carried out at 30° C. and in the presence of 40 nM Rlk. Final concentrations of the components of the coupled enzyme system were 2.5 mM phosphoenolpyruvate, 300 μM NADH, 30 μg/ml pyruvate kinase and 10 μg/ml lactate dehydrogenase.
An assay stock buffer solution was prepared containing all of the reagents listed above, with the exception of ATP and the test compound of interest. 60 μl of the stock solution was placed in a 96 well plate followed by addition of […] of DMSO stock containing serial dilutions of the test compound (typically starting from a final concentration of 7.5 μM). The plate was preincubated for 10 minutes at 30° C. and the reaction initiated by addition of 5 μl of ATP. Initial reaction rates were determined with a Molecular Devices SpectraMax Plus plate reader over a 10 minute time course. IC50 and Ki data were calculated from non-linear regression analysis using the Prism software package (GraphPad Prism version 3.0cx for Macintosh, GraphPad Software, San Diego Calif., USA).

Regarding `O=C(Nc1cc(-c2ccncc2)c[nH]c1=O)c1ccc(CCl)cc1` [Compound I-5], the Ki in assay [1] was 100 to 1000 nM; in assay [2], 100 to 1000 nM; in assay [3] it was greater than 1000 nM. For the molecule `O=C(Nc1cc(-c2ccncc2)c[nH]c1=O)c1ccc(N2CCCC2)cc1` [Compound I-69], the Ki in assay [1] and in assay [2] was 100 to 1000 nM throughout. Take `CN1CCN(c2ccc(C(=O)Nc3cc(-c4ccncc4)c[nH]c3=O)cc2)CC1` [Compound I-70]: the Ki in assay [2] is less than 100 nM.

`O=C(Nc1cc(-c2ccncc2)c[nH]c1=O)c1ccc(N2CCCCCC2)cc1` [Compound I-76] gave a Ki in assay [2] of less than 100 nM.

In assay [2], `O=C(Nc1cc(-c2ccncc2)c[nH]c1=O)c1ccc(N2CCCNCC2)cc1` [Compound I-78] yielded a Ki of less than 100 nM. The same measure, in the same setting: the figure for `CN(C)CCCNc1ccc(C(=O)Nc2cc(-c3ccncc3)c[nH]c2=O)cc1` [Compound I-79] is less than 100 nM. Same read-out and setting: for `NCCCNc1ccc(C(=O)Nc2cc(-c3ccncc3)c[nH]c2=O)cc1` [Compound I-80] the value was less than 100 nM. For `O=C(Nc1cc(-c2ccncc2)c[nH]c1=O)c1ccc(CN2CCOCC2)cc1` [Compound I-82], the inhibitory constant (Ki) in assay [1] and in assay [2] was 100 to 1000 nM each time. In the case of `O=C(Nc1cc(-c2ccncc2)c[nH]c1=O)c1ccc(CN2CCNCC2)cc1` [Compound I-83], the Ki in assay [1] and in assay [2] was 100 to 1000 nM in each case. On to `CNCCN(C)Cc1ccc(C(=O)Nc2cc(-c3ccncc3)c[nH]c2=O)cc1` [Compound I-84], for which the inhibition constant Ki in assay [1] and in assay [2] was 100 to 1000 nM in each case. Regarding `CSc1nccc(-c2c[nH]c(=O)c(NC(=O)c3ccc(C(C)(C)C)cc3)c2)n1` [II-4, 4-tert-Butyl-N-[5-(2-methylsulfanyl-pyrimidin-4-yl)-2-oxo-1,2-dihydro-pyridin-3-yl]-benzamide], the Ki in assay [1] and in assay [2] was 100 to 1000 nM in each case. Consider `CC(C)(C)c1ccc(C(=O)Nc2cc(-c3ccnc(N[C@@H]4CCNC4)n3)c[nH]c2=O)cc1` [II-31], for which the results for the Ki in assay [1] and in assay [3] were less than 100 nM and less than 1000 nM, respectively. In the case of `CNCCNc1cccc(-c2c[nH]c(=O)c(NC(=O)c3ccc(C(C)(C)C)cc3)c2)n1` [II-35], the Ki is less than 100 nM in assay [1] and less than 1000 nM in assay [3]. For the molecule `CNCCNc1cc(-c2c[nH]c(=O)c(NC(=O)c3ccc(C(C)(C)C)cc3)c2)ncn1` [II-38], the figures for the Ki in assay [1] and in assay [3] were 100 to 1000 nM and greater than 1000 nM, respectively.

As for `CNc1nccc(-c2c[nH]c(=O)c(NC(=O)c3ccc(N4CCCCC4)cc3)c2)n1` [II-40, N-(1,2-dihydro-5-(2-(methylamino)pyrimidin-4-yl)-2-oxopyridin-3-yl)-4-(piperidin-1-yl)benzamide], the results for the Ki in assay [1] and in assay [3] were less than 100 nM and less than 1000 nM, respectively. On the same counts, the results for `CNCCN(C)c1nccc(-c2c[nH]c(=O)c(NC(=O)c3ccc(N4CCCCC4)cc3)c2)n1` [II-65] are less than 100 nM and greater than 1000 nM. On the same counts, the results for `CNCCNc1cccc(-c2c[nH]c(=O)c(NC(=O)c3ccc(N4CCCCC4)cc3)c2)c1` [II-75] are 100 to 1000 nM and greater than 1000 nM.

Take `CNc1nccc(-c2c[nH]c(=O)c(NC(=O)c3ccc(N4CCN(CCCOC)CC4)cc3)c2)n1` [II-79]: the inhibition constant (Ki) in assay [1] was less than 100 nM; in assay [3], less than 1000 nM. As to `CNc1nccc(-c2c[nH]c(=O)c(NC(=O)c3ccc(N4CCN(C(C)=O)CC4)cc3)c2)n1` [II-81], the Ki in assay [1] was less than 100 nM; in assay [3], less than 1000 nM.

For `CC(C)(C)c1ccc(C(=O)Nc2cc(C3=CC(=O)CCC3)c[nH]c2=O)cc1` [II-83], the Ki is 100 to 1000 nM in assay [1] and greater than 1000 nM in assay [3]. On the same counts, the results for `O=C1C=C(c2c[nH]c(=O)c(NC(=O)c3ccc(N4CCCCC4)cc3)c2)CCC1` [II-85] are 100 to 1000 nM and greater than 1000 nM.

Take `O=C1C=C(c2c[nH]c(=O)c(NC(=O)c3ccc(N4CCCCC4)cc3)c2)CC1` [II-87]: the results for the Ki in assay [1] and in assay [3] were 100 to 1000 nM and greater than 1000 nM, respectively. For `CNc1cncc(-c2c[nH]c(=O)c(NC(=O)c3ccc(OCCC4CCNCC4)cc3)c2)n1` [II-143], in that order: less than 100 nM and greater than 1000 nM.

As for `CNc1cncc(-c2c[nH]c(=O)c(NC(=O)c3ccc(N4CCN(CCO)CC4)cc3)c2)n1` [II-148], the inhibitory constant (Ki) is less than 100 nM in assay [1] and greater than 1000 nM in assay [3].

Regarding `CNc1cc(C#N)cc(-c2c[nH]c(=O)c(NC(=O)c3ccc(N4CCNCC4)cc3)c2)n1` [II-160], the inhibition constant (Ki) in assay [1] was less than 100 nM; in assay [3] it was greater than 1000 nM. For `CNc1cncc(-c2c[nH]c(=O)c(NC(=O)c3ccc(NC4CCNCC4)cc3)c2)n1` [II-163], in that order: less than 100 nM and greater than 1000 nM. On the same counts, the results for `CNc1cncc(-c2c[nH]c(=O)c(NC(=O)c3ccc(N(C)CCN(C)C)cc3)c2)n1` [II-164] are less than 100 nM and greater than 1000 nM. On the same counts, the results for `CNc1cncc(-c2c[nH]c(=O)c(NC(=O)c3ccc(N4CC[C@@H](N(C)C)C4)cc3)c2)n1` [II-166] are less than 100 nM and greater than 1000 nM.

For `CNc1cncc(-c2c[nH]c(=O)c(NC(=O)c3ccc(NCCCn4ccnc4)cc3)c2)n1` [II-168], the Ki is less than 100 nM in assay [1] and greater than 1000 nM in assay [3]. On the same counts, the results for `CNc1cc(F)cc(-c2c[nH]c(=O)c(NC(=O)c3ccc(N4CCC[C@H]4CN4CCCC4)cc3)c2)n1` [II-171] are less than 100 nM and greater than 1000 nM. For `CNc1cncc(-c2c[nH]c(=O)c(NC(=O)c3ccc(N4CCC[C@H]4CN4CCCC4)cc3)c2)c1` [II-178], in that order: less than 100 nM and greater than 1000 nM. With `CNc1cc(C#N)cc(-c2c[nH]c(=O)c(NC(=O)c3ccc(N4CCC[C@H]4CN4CCCC4)cc3)c2)c1` [II-179], the figures for the Ki in assay [1] and in assay [3] were less than 100 nM and greater than 1000 nM, respectively. For `CC(C)c1ccc(NC(=O)c2cc(-c3ccncc3)c[nH]c2=O)cc1` [III-4], in that order: 100 to 1000 nM and greater than 1000 nM. For `CC(C)(C)c1ccc(NC(=O)c2cc(-c3ccncc3)c[nH]c2=O)cc1` [III-5], in that order: 100 to 1000 nM and greater than 1000 nM.

The values above are taken from patent publication US8338597B2, “Pyridones useful as inhibitors of kinases” (Vertex Pharmaceuticals Incorporated, priority 2004, dated 2012).
